Test results taken from patent US4859186A, “Pulpotomy agent and method of use” (priority 1988, dated 1989).

Tests used:
[1] = biological target: bovine serum albumin (BSA) in collagen-BSA gel wafers (Bos taurus, UniProt P02769); experiment: Collagen-BSA gel wafer assay: BSA diffusing from gel after fixation; settings: for % of control retained (diluted 10 fold) / % change relative to fresh glutaraldehyde / % of control retained / % change relative to freshly prepared 4% glutaraldehyde: diluted 10 fold
Sequence of bovine serum albumin (BSA) in collagen-BSA gel wafers (P02769 25-607): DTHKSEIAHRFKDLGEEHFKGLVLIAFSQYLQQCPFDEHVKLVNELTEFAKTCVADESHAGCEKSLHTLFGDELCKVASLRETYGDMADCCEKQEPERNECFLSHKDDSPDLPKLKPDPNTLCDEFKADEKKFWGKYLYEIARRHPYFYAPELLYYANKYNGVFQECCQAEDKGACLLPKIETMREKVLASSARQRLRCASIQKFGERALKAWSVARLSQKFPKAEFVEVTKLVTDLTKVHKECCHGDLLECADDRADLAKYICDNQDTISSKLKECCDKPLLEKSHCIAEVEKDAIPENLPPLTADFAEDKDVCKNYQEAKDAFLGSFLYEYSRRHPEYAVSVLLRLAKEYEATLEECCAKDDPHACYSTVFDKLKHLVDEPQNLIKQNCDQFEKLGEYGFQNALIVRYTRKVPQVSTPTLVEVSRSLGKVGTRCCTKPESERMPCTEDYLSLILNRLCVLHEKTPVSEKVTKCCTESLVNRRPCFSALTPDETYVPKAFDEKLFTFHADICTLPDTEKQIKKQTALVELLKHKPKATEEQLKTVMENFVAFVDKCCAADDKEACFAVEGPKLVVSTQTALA
Text: (§1) Two assays were used to evaluate the effectiveness of the composition of the present invention as a pulpotomy agent. The first was based on the diffusion of bovine serum albumin (BSA) from collagen-BSA gel wafers following fixation. That methodology was based on the method described in Flitney, F. W., "The time course of the fixation of albumin by formaldehyde, glutaraldehyde, acrolein and other higher aldehydes," 85 J. Royal Microscop. […] 353 (1966)). The collagen-BSA gel was formulated by Flitney to simulate the cytoplasm of the cell. Diffusion of BSA from the gel was intended to provide a reproducible model by which the relative change in the rate of leakage of protein through the cell membrane could be monitored during fixation with different techniques. This procedure was also modified as described in Example III to allow the evaluation of the depth of penetration of the composition of the present invention into adjoining cells of the pulpal tissue. The second assay was the determination of residual lactate dehydrogenase activity (LDH) in bovine pulp following treatment with the composition of the present invention.
The effectiveness of the fixative ability of the pulpotomy agent of the present invention was assayed according to the method set out in Flitney, supra. Briefly, that method is as follows. Collagen gels (0.3 g/2.8 ml) were prepared containing a physiological salt solution and bovine serum albumin (1 g BSA/10 ml). The mixture was dissolved in a boiling water bath and measured amounts were pipetted into plastic vials. Collagen-BSA wafers were removed from the vials and incubated in a buffered glutaraldehyde solution and the 4% glutaraldehyde-containing pulpotomy agent prepared as described in Example I, above, for 4 minutes. Wafers treated with distilled water or sodium phosphate buffer for identical time periods were used as respective controls. Following incubation, relative fixation of protein in the gels was ascertained by measuring the amount of BSA which diffuses from the gels into 4 ml of water during a 30 minute period. BSA was quantified by the method described by Bradford, M. M., "A rapid and sensitive method for quantification of microgram quantities of protein utilizing the principles of protein dye binding," 72 Anal. Biochem. 248 (1976).
The quantity of BSA which diffused from each gel is reported below as a percentage of control lost or retained.

[2] = tested on: lactate dehydrogenase (LDH) in bovine pulp; experiment: Residual LDH activity in calf pulp after treatment; format: biochemical
Text: as §1
The effectiveness of the pulpotomy agent prepared as described in Example I, above, was also evaluated by an assay for residual LDH Activity. In this assay, calf pulp was harvested from freshly extracted molars, minced into pieces of approximately 1 mm^3, divided into aliquots weighing approximately 0.5 g, and stored at -20° C. until used. After thawing each aliquot was wet weighed and incubated in the 4% glutaraldehyde-containing pulpotomy agent prepared as described in Example I for 4 minutes. The treated sample was homogenized for one minute in ten ml of 0.2M Tris, pH 7.3, using a homogenizer. Following centrifugation for ten minutes at 300 rpm on a clinical centrifuge, the supernatant was decanted. One hundred microliters of the supernatant was added to a cuvette containing 2.8 ml Tris HCl, 1.0 ml of […], and 0.1 ml of 30 mM sodium pyruvate and vortexed for 10 seconds. The change in absorbence per minute was recorded on a spectrophotometer at 345 nm at room temperature. The activities were calculated as units/g wet weight/min, and the mean was calculated for five samples in each group. The values are reported as a percentage of controls and statistics were the same as described in Example II, above.

[3] = biological target: bovine serum albumin (BSA) in collagen-BSA gels (Bos taurus, UniProt P02769); experiment: Penetration (depth of fixation) assay: collagen-BSA gels submerged intact in vials
Sequence of bovine serum albumin (BSA) in collagen-BSA gels (P02769 25-607): as above
Text: as §1

[4] = stored at room temperature (25° C.) for eight months

O=CCCCC=O [4% Glutaraldehyde, glutaraldehyde]
% of control retained (diluted 10 fold) ([1]; Fresh, mean of four samples): 80% | % of control gel retained ([1]; Fresh, heat assay, mean of four samples): 80% | % of control retained (undiluted solutions) ([1]; Fresh, mean of six samples): 85% | % change relative to fresh glutaraldehyde ([1]; Heated at 37° C. for 3 Months): -34% | % of control retained ([1]; Heated at 37° C. for 3 Months): 53% | % of control gel retained ([1]; Heated: storage at 37° C. for three months): 53% | % change relative to fresh glutaraldehyde ([1]; Stored at 25° C. for 3 Months): -21% | % of control retained ([1]; Stored at 25° C. for 3 Months): 63% | % change relative to freshly prepared 4% glutaraldehyde ([1]; cold nine months): -8% | % of control retained ([1]; made up fresh, mean of four samples): 80% | % change relative to freshly prepared 4% glutaraldehyde ([1]; room temperature nine months): -11% | % of control retained (undiluted solutions) [1, 4]: 85% | % of control retained (diluted 10 fold) ([1]; stored at room temperature for nine months): 72% | % of control retained (undiluted solutions) ([1]; stored cold (5° C.) for eight months): 85% | % of control retained (diluted 10 fold) ([1]; stored in the cold for nine months): 72% | % of control retained (BSA in gel) ([1]; wafers incubated 4 minutes, BSA diffusing into 4 ml water during 30 minutes, five samples): 78% | % of control retained (LDH activity) ([2]; Fresh, mean of 5 samples): 6% | % of control retained (residual LDH activity) ([2]; calf pulp incubated 4 minutes, five samples): 3.0% | LDH inhibition versus concentration ([2]; different concentrations for any treatment time, FIG. 3): log-dose response | % of control retained (LDH activity) [2, 4]: 3% | % of control retained (LDH activity) ([2]; stored in the cold (5° C.) for eight months): 4% | secondary diffusion of BSA (depth of penetration) ([3]; 2, 4, and 8 percent solutions, FIG. 2): decreased by approximately the same amount | % of control retained (BSA in gel, penetration) ([3]; vials with gels intact submerged 4 minutes, five samples): 27%
